Results published in US10336746B1, “RAD51 inhibitors” (Cyteir Therapeutics, Inc., priority 2017, dated 2019).
pEC50: −log10 of the molar value. Read-outs that look alike come from different tables or passages of the source.

Assays:
[1] = system: WI-38 cells (AID negative); assay: Primary screening cell killing assay repeated in WI-38 cells (AID negative); format: cell-based; settings: Homo sapiens, 168 h, cell death on Day 7, Cell-Titer Glo
Protocol: Primary screening was a phenotypic screen that utilized the synthetic lethal interaction between AID and RAD51 to identify compounds that were both potent and on target. AID expressing cells are dependent upon RAD51 for survival; inhibiting RAD51 in AID positive cells results in a cytotoxic effect.
Percent cell death and EC50 values were calculated by comparing the cell viability of the compound treated wells to the non-treated wells. Normalized RLU values were obtained by subtracting the media well values from each of the wells in the same column, and then dividing that value by the DMSO treated cells values. The percent kill was then calculated by subtracting the normalized RLU value from 1 and multiplying by 100. The average normalized percent kill value and standard error of the mean was then calculated. The kill values were then inputted into Prism with the corresponding standard errors. In Prism a non-linear regression line was plotted with the data points using a semi-log scale, and the EC50 value was calculated.

[2] = system: Daudi cell line (AID positive); assay: Primary screening cell killing assay, Daudi cell line (AID positive); format: cell-based; settings: Homo sapiens, 168 h, cell death on Day 7, Cell-Titer Glo
Outline: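 AID-positive Daudi cells, 1250 per well, were exposed to serially diluted compounds for 7 days at 37° C. Viability read by CellTiter-Glo luminescence; percent cell death and EC50 derived against untreated wells after media-blank subtraction.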

[3] = Bi-directional Caco-2 permeability; format: in vitro ADME; settings: human; for efflux ratio at 90 min: Caco-2, read-out: BA/AB Ratio; for Papp A→B at 90 min: Caco-2, apical to basolateral, read-out: AB Papp (cm/sec × 10^6); for Papp A→B at 90 min / Papp B→A at 90 min: 37 C, up to 90 minutes; for Papp B→A at 90 min: Caco-2, basolateral to apical, read-out: BA Papp (cm/sec × 10^6)
Protocol: Bi-directional Caco-2 permeability was assayed. Caco-2 cells were seeded onto permeable polycarbonate supports and allowed to differentiate for about 3 weeks prior to being used in the assays. The cells were then exposed to the compounds from either the apical or basolateral sides and incubated at 37 C for up to 90 minutes under light agitation. Compound transport was then measured using LC/MS/MS analysis at 30, 60, and 90 minutes.

[4] = Caco-2, Caco-2, AB direction, read-out: AB Recovery %
[5] = Caco-2, Caco-2, BA direction, read-out: BA Recovery %

SMILES	pEC50 [1]	pEC50 [2]	recovery at 90 min [3, 4]	recovery at 90 min [3, 5]	efflux ratio at 90 min [3]	Papp A→B at 90 min [3]	Papp B→A at 90 min [3]
CC(C)(C)NS(=O)(=O)c1cc(NC(=O)NCc2ccccc2)ccc1-c1cnc([C@H]2CC[C@H](NC(=O)OC(C)(C)C)CC2)s1 [Ex. 10, trans-tert-butyl N-[4-[5-[4-(benzylcarbamoylamino)-2-(tert-butylsulfamoyl)phenyl]thiazol-2-yl]cyclohexyl]carbamate]	< 6.00	≥ 7.00	59.9%	87.2%	1.3	1.2 ×10⁻⁶ cm/s	1.5 ×10⁻⁶ cm/s
CC(C)OC(=O)Nc1ccc(-c2cnc(C34CCC(NC(=O)OC(C)C)(CC3)CC4)s2)c(S(=O)(=O)NC(C)(C)C)c1 [Ex. 17, isopropyl N-[3-(tert-butylsulfamoyl)-4-[2-[4-(isopropoxycarbonylamino)-1-bicyclo[2.2.2]octanyl]thiazol-5-yl]phenyl]carbamate]	< 6.00	6.00 to 7.00	47.2%	81.9%	0.8	2.8 ×10⁻⁶ cm/s	2.1 ×10⁻⁶ cm/s
CC(C)OC(=O)N[C@H]1CC[C@H](c2ncc(-c3ccc(NC(=O)NCc4cccc(F)c4)cc3S(=O)(=O)NC(C)(C)C)s2)CC1 [Ex. 27, isopropyl ((1r,4r)-4-(5-(2-(N-(tert-butyl)sulfamoyl)-4-(3-(3-fluorobenzyl)ureido)phenyl)thiazol-2-yl)cyclohexyl)carbamate]	< 6.00	≥ 7.00	92%	107%	0.7	0.7 ×10⁻⁶ cm/s	0.5 ×10⁻⁶ cm/s
CC(C)OC(=O)N[C@H]1CC[C@H](c2ncc(-c3ccc(NC(=O)N[C@H](C)c4ccccn4)cc3S(=O)(=O)NC(C)(C)C)s2)CC1 [Ex. 30, isopropyl ((1R,4r)-4-(5-(2-(N-(tert-butyl)sulfamoyl)-4-(3-((R)-1-(pyridin-2-yl)ethyl)ureido)phenyl)thiazol-2-yl)cyclohexyl)carbamate]	< 6.00	≥ 7.00	79.8%	116%	1.4	11.5 ×10⁻⁶ cm/s	15.7 ×10⁻⁶ cm/s
CC(C)OC(=O)NC1CCC(c2ncc(-c3ccc(NC(=O)OC4COC4)cc3S(=O)(=O)NC(C)(C)C)s2)CC1 (stereo not shown) [Ex. 38, isopropyl ((1r,4r)-4-(5-(2-(N-(tert-butyl)sulfamoyl)-4-(((oxetan-3-yloxy)carbonyl)amino)phenyl)thiazol-2-yl)cyclohexyl)carbamate]	< 6.00	≥ 7.00	73.3%	82.3%	1.3	17.9 ×10⁻⁶ cm/s	22.9 ×10⁻⁶ cm/s
CC(C)(C)NS(=O)(=O)c1cc(NC(=O)NCc2ccccc2)ccc1-c1cnc([C@H]2CC[C@H](NC(=O)OC3COC3)CC2)s1 [Ex. 47, trans-oxetan-3-yl N-[4-[5-[4-(benzylcarbamoylamino)-2-(tert-butylsulfamoyl)phenyl]thiazol-2-yl]cyclohexyl]carbamate]	< 6.00	≥ 7.00	65.3%	80.7%	1.4	8.7 ×10⁻⁶ cm/s	12.4 ×10⁻⁶ cm/s
CC(C)OC(=O)Nc1ccc(-c2cnc(C3CCC(NC(=O)OC4COC4)CC3)s2)c(S(=O)(=O)NC(C)(C)C)c1 (stereo not shown) [Ex. 48, oxetan-3-yl ((1r,4r)-4-(5-(2-(N-(tert-butyl)sulfamoyl)-4-((isopropoxycarbonyl)amino)phenyl)thiazol-2-yl)cyclohexyl)carbamate]	< 6.00	6.00 to 7.00	80.1%	90.3%	0.7	23.1 ×10⁻⁶ cm/s	16 ×10⁻⁶ cm/s
CC(C)(C)NS(=O)(=O)c1cc(NC(=O)NCc2ccccn2)ccc1-c1cnc(C2CCC(NC(=O)OC3COC3)CC2)s1 (stereo not shown) [Ex. 50, oxetan-3-yl ((1r,4r)-4-(5-(2-(N-(tert-butyl)sulfamoyl)-4-(3-(pyridin-2-ylmethyl)ureido)phenyl)thiazol-2-yl)cyclohexyl)carbamate]	< 6.00	≥ 7.00	87.7%	98.1%	14.6	2 ×10⁻⁶ cm/s	29.1 ×10⁻⁶ cm/s
C[C@H](NC(=O)Nc1ccc(-c2cnc(C3CCC(NC(=O)OC4COC4)CC3)s2)c(S(=O)(=O)NC(C)(C)C)c1)c1ccccc1 (stereo partly drawn) [Ex. 51, oxetan-3-yl ((1S,4r)-4-(5-(2-(N-(tert-butyl)sulfamoyl)-4-(3-((S)-1-phenylethyl)ureido)phenyl)thiazol-2-yl)cyclohexyl)carbamate]	< 6.00	≥ 7.00	65%	85.7%	1.1	9.9 ×10⁻⁶ cm/s	10.5 ×10⁻⁶ cm/s
C[C@@H](NC(=O)Nc1ccc(-c2cnc(C3CCC(NC(=O)OC4COC4)CC3)s2)c(S(=O)(=O)NC(C)(C)C)c1)c1ccccc1 (stereo partly drawn) [Ex. 52, oxetan-3-yl ((1R,4r)-4-(5-(2-(N-(tert-butyl)sulfamoyl)-4-(3-((R)-1-phenylethyl)ureido)phenyl)thiazol-2-yl)cyclohexyl)carbamate]	< 6.00	≥ 7.00	64.1%	91.7%	1.5	7.4 ×10⁻⁶ cm/s	10.9 ×10⁻⁶ cm/s
CC(C)(C)NS(=O)(=O)c1cc(NC(=O)NCc2ccccc2F)ccc1-c1cnc(C2CCC(NC(=O)OC3COC3)CC2)s1 (stereo not shown) [Ex. 53, oxetan-3-yl ((1r,4r)-4-(5-(2-(N-(tert-butyl)sulfamoyl)-4-(3-(2-fluorobenzyl)ureido)phenyl)thiazol-2-yl)cyclohexyl)carbamate]	< 6.00	≥ 7.00	63.1%	90.9%	1	9.3 ×10⁻⁶ cm/s	9.7 ×10⁻⁶ cm/s
C[C@H](NC(=O)Nc1ccc(-c2cnc(C3CCC(NC(=O)OC4COC4)CC3)s2)c(S(=O)(=O)NC(C)(C)C)c1)c1ccccc1F (stereo partly drawn) [Ex. 55, oxetan-3-yl ((1S,4r)-4-(5-(2-(N-(tert-butyl)sulfamoyl)-4-(3-((S)-1-(2-fluorophenyl)ethyl)ureido)phenyl)thiazol-2-yl)cyclohexyl)carbamate]	< 6.00	≥ 7.00	65.2%	83.8%	1.1	6.5 ×10⁻⁶ cm/s	7 ×10⁻⁶ cm/s
CC(C)OC(=O)N[C@H]1CC[C@H](c2nc(F)c(-c3ccc(NC(=O)NCc4ccccc4)cc3S(=O)(=O)NC(C)(C)C)s2)CC1 [Ex. 57, trans-isopropyl N-[4-[5-[4-(benzylcarbamoylamino)-2-(tert-butylsulfamoyl)phenyl]-4-fluoro-thiazol-2-yl]cyclohexyl]carbamate]	< 6.00	≥ 7.00	61.9%	86.8%	2.7	1.3 ×10⁻⁶ cm/s	3.5 ×10⁻⁶ cm/s
CC(C)OC(=O)Nc1ccc(-c2sc(C3CCC(NC(=O)OC(C)C)CC3)nc2F)c(S(=O)(=O)NC(C)(C)C)c1 (stereo not shown) [Ex. 58, isopropyl ((1r,4r)-4-(5-(2-(N-(tert-butyl)sulfamoyl)-4-((isopropoxycarbonyl)amino)phenyl)-4-fluorothiazol-2-yl)cyclohexyl)carbamate]	< 6.00	6.00 to 7.00	52.3%	83.5%	0.7	5.1 ×10⁻⁶ cm/s	3.4 ×10⁻⁶ cm/s
CC(C)OC(=O)N[C@@H]1CC[C@@H](c2ncc(-c3ccc(NC(=O)NCc4ccccc4)cc3S(=O)(=O)NC(C)(C)C)s2)OC1 [Ex. 59A]	< 6.00	6.00 to 7.00	55.6%	85.5%	3.1	3.1 ×10⁻⁶ cm/s	9.6 ×10⁻⁶ cm/s
CC(C)OC(=O)N[C@H]1CC[C@H](c2ncc(-c3ccc(NC(=O)NCc4ccccc4)cc3S(=O)(=O)NC(C)(C)C)s2)OC1 [Ex. 59B]	< 6.00	≥ 7.00	56.2%	82%	2.1	4.6 ×10⁻⁶ cm/s	9.7 ×10⁻⁶ cm/s
CC(C)OC(=O)Nc1ccc(-c2cnc([C@@H]3CC[C@@H](NC(=O)OC(C)C)CO3)s2)c(S(=O)(=O)NC(C)(C)C)c1 [Ex. 60A]	< 6.00	< 6.00	55.3%	86%	0.9	12 ×10⁻⁶ cm/s	11.2 ×10⁻⁶ cm/s
CC(C)OC(=O)N[C@H]1CC[C@H](c2ncc(-c3ccc(NC(=O)NCc4ccccc4)cc3S(=O)(=O)NC(C)(C)CO)s2)CC1 [Ex. 74, trans-isopropyl N-[4-[5-[4-(benzylcarbamoylamino)-2-[(2-hydroxy-1,1-dimethyl-ethyl)sulfamoyl]phenyl]thiazol-2-yl]cyclohexyl]carbamate]	< 6.00	≥ 7.00					
